Laboratory results: PMC10669656, “ADMET and Solubility Analysis of New 5-Nitroisatine-Based Inhibitors of CDK2 Enzymes” (Biomedicines, 2023)
Converted amounts (≈) assume the structure as drawn. “And” between values parts separate entries of the source, which are not always exact repeats. Equal values may be shown once.

Columns and labels:
Assay type in all cases: physicochemical
[1] = Solubility in NMP-water binary mixtures; conditions: for solubility at 24 h: thermodynamic from solid
Protocol: (§1) The calibration curves for each derivative were obtained using successful dilutions of initial stock solutions followed by spectrophotometric measurements of the obtained solutions with decreasing concentration. The concentration ranges for the derivatives 1, 2, and 3 were 0.0081–0.0405 mg/mL, 0.0077–0.0385 mg/mL, and 0.0068–0.017 mg/mL, respectively. Methanol was used both as a solvent, as well as a reference for spectrophotometric measurements. […] The A360 spectrophotometer from AOE Instruments was used for the preparation of the calibration curves. […] Three calibration curves were prepared for each derivative and then averaged.
(§2) A multi-step procedure was employed in order to find the solubility of the studied derivatives in the selected solvents. First of all, the excess amount of the considered compound was added to test tubes containing either neat solvents or their mixtures with water in different proportions, thus forming binary solvents. Saturated solutions were obtained in this way, placed in a Shaker Incubator ES-20/60 from Biosan, and incubated for 24 h at 298.1 K. The temperature adjustment was possible with a 0.1-degree accuracy, and the variance within a 24 h cycle was 0.5 degrees. The samples were simultaneously mixed at 60 rev/min. After incubation, the samples were filtered with the help of plastic syringes equipped with PTFE filters with 0.22 µm pore size. The obtained filtrates were diluted with methanol in another set of test tubes. In order to determine the mole fractions of a solute in the solution, 1 mL of the filtered samples was weighed in 10 mL volumetric flasks using a RADWAG AS 110 R2.PLUS analytical balance. The samples diluted with methanol were measured spectrophotometrically using the same instrument as was used in the case of calibration curves. The spectra were recorded in the wavelength range of 190–500 nm, and the resolution was 1 nm. Methanol was used if further dilution of the sample was required, and it was also used as a reference for calibrating the spectrophotometer. The absorbance values at 315 nm, 321 nm, and 321 nm were taken into account for derivatives 1, 2, and 3, respectively. Based on the calibration curves, the concentration of the solute in the samples was determined together with its mole fraction. Three separate measurements were conducted, and the final values are the results of averaging them.

[2] = Solubility in DMSO-water binary mixtures; conditions: for solubility at 24 h: 25 °C, thermodynamic from solid
Protocol: as §1, §2

[3] = Solubility in neat solvents, shake-flask with spectrophotometric determination; conditions: for solubility at 24 h: 25 °C, organic solvent or mixture, thermodynamic from solid
Protocol: as §1, §2

[4] = neat γ-nonanoic lactone, 298.1 K

solubility at 24 h ([1]; NMP-water binary mixture, x*NMP 0.1, 25 °C, aqueous with cosolvent or surfactant or cyclodextrin, x*NMP 0.1, 298.1 K): 56.6 mg/mL (≈ 150 mM)
solubility at 24 h ([1]; NMP-water binary mixture, x*NMP 0.2, 25 °C, aqueous with cosolvent or surfactant or cyclodextrin, x*NMP 0.2, 298.1 K): 111 mg/mL (≈ 293 mM)
solubility at 24 h ([1]; NMP-water binary mixture, x*NMP 0.3, 25 °C, aqueous with cosolvent or surfactant or cyclodextrin, x*NMP 0.3, 298.1 K): 161 mg/mL (≈ 426 mM)
solubility at 24 h ([1]; NMP-water binary mixture, x*NMP 0.4, 25 °C, aqueous with cosolvent or surfactant or cyclodextrin, x*NMP 0.4, 298.1 K): 205 mg/mL (≈ 542 mM)
solubility at 24 h ([1]; NMP-water binary mixture, x*NMP 0.7, 25 °C, aqueous with cosolvent or surfactant or cyclodextrin, x*NMP 0.7, 298.1 K): 285 mg/mL (≈ 753 mM)
solubility at 24 h ([1]; NMP-water binary mixture, x*NMP 0.8, 25 °C, aqueous with cosolvent or surfactant or cyclodextrin, x*NMP 0.8, 298.1 K): 294 mg/mL (≈ 777 mM)
solubility at 24 h ([1]; NMP-water binary mixture, x*NMP 0.9, 25 °C, aqueous with cosolvent or surfactant or cyclodextrin, x*NMP 0.9, 298.1 K): 282 mg/mL (≈ 746 mM)
solubility at 24 h ([1]; NMP-water binary solvent, 25 °C, aqueous with cosolvent or surfactant or cyclodextrin, x*NMP 0.5, 298.1 K): 248 mg/mL (≈ 656 mM)
solubility at 24 h ([1]; NMP-water binary solvent, 25 °C, aqueous with cosolvent or surfactant or cyclodextrin, x*NMP 0.6, 298.1 K): 272 mg/mL (≈ 719 mM)
solubility at 24 h ([1]; NMP-water series, x*NMP 1.0, 25 °C, organic solvent or mixture, x*NMP 1.0, 298.1 K): 265 mg/mL (≈ 701 mM)
solubility x ([1]; x*NMP 0.1, 298.1 K): 3.86 (0.05) × 10^−3 mole fraction
solubility x ([1]; x*NMP 0.2, 298.1 K): 1.05 (0.01) × 10^−2 mole fraction
solubility x ([1]; x*NMP 0.3, 298.1 K): 1.98 (0.04) × 10^−2 mole fraction
solubility x ([1]; x*NMP 0.4, 298.1 K): 3.09 (0.04) × 10^−2 mole fraction
solubility x ([1]; x*NMP 0.6, 298.1 K): 5.77 (0.07) × 10^−2 mole fraction
solubility x ([1]; x*NMP 0.7, 298.1 K): 6.87 (0.11) × 10^−2 mole fraction
solubility x ([1]; x*NMP 0.8, 298.1 K): 7.76 (0.08) × 10^−2 mole fraction
solubility x ([1]; x*NMP 0.9, 298.1 K): 7.96 (0.10) × 10^−2 mole fraction
solubility x ([1]; x*NMP 1.0, 298.1 K): 8.06 (0.25) × 10^−2 mole fraction
solubility at 24 h ([2]; DMSO-water binary mixture, aqueous with cosolvent or surfactant or cyclodextrin, x*DMSO 0.1, 298.1 K): 88 mg/mL (≈ 233 mM)
solubility at 24 h ([2]; DMSO-water binary mixture, aqueous with cosolvent or surfactant or cyclodextrin, x*DMSO 0.2, 298.1 K): 179 mg/mL (≈ 473 mM)
solubility at 24 h ([2]; DMSO-water binary mixture, aqueous with cosolvent or surfactant or cyclodextrin, x*DMSO 0.3, 298.1 K): 219 mg/mL (≈ 579 mM)
solubility at 24 h ([2]; DMSO-water binary mixture, aqueous with cosolvent or surfactant or cyclodextrin, x*DMSO 0.4, 298.1 K): 261 mg/mL (≈ 690 mM)
solubility at 24 h ([2]; DMSO-water binary mixture, aqueous with cosolvent or surfactant or cyclodextrin, x*DMSO 0.5, 298.1 K): 305 mg/mL (≈ 806 mM)
solubility at 24 h ([2]; DMSO-water binary mixture, aqueous with cosolvent or surfactant or cyclodextrin, x*DMSO 0.6, 298.1 K): 336 mg/mL (≈ 888 mM)
solubility at 24 h ([2]; DMSO-water binary mixture, aqueous with cosolvent or surfactant or cyclodextrin, x*DMSO 0.7, 298.1 K): 356 mg/mL (≈ 941 mM)
solubility at 24 h ([2]; DMSO-water binary mixture, aqueous with cosolvent or surfactant or cyclodextrin, x*DMSO 0.8, 298.1 K): 363 mg/mL (≈ 960 mM)
solubility at 24 h ([2]; DMSO-water binary mixture, aqueous with cosolvent or surfactant or cyclodextrin, x*DMSO 0.9, 298.1 K): 355 mg/mL (≈ 938 mM)
solubility at 24 h ([2]; DMSO-water series, organic solvent or mixture, x*DMSO 1.0, 298.1 K): 327 mg/mL (≈ 864 mM)
solubility x ([2]; x*DMSO 0.1, 298.1 K): 5.27 (0.10) × 10^−3 mole fraction
solubility x ([2]; x*DMSO 0.2, 298.1 K): 1.47 (0.02) × 10^−2 mole fraction
solubility x ([2]; x*DMSO 0.3, 298.1 K): 2.25 (0.03) × 10^−2 mole fraction
solubility x ([2]; x*DMSO 0.4, 298.1 K): 3.25 (0.05) × 10^−2 mole fraction
solubility x ([2]; x*DMSO 0.5, 298.1 K): 4.46 (0.08) × 10^−2 mole fraction
solubility x ([2]; x*DMSO 0.6, 298.1 K): 5.69 (0.15) × 10^−2 mole fraction
solubility x ([2]; x*DMSO 0.7, 298.1 K): 6.72 (0.14) × 10^−2 mole fraction
solubility x ([2]; x*DMSO 0.8, 298.1 K): 7.60 (0.10) × 10^−2 mole fraction
solubility x ([2]; x*DMSO 0.9, 298.1 K): 8.00 (0.14) × 10^−2 mole fraction
solubility x ([2]; x*DMSO 1.0, 298.1 K): 7.70 (0.11) × 10^−2 mole fraction
solubility at 24 h ([3]; neat DMF, 298.1 K): 119 mg/mL (≈ 315 mM)
solubility at 24 h ([3]; neat DMP, 298.1 K): 0.94 mg/mL (≈ 2.49 mM)
solubility at 24 h ([3]; neat DMSO, 298.1 K): 327 mg/mL (≈ 864 mM)
solubility at 24 h ([3]; neat NMP, 298.1 K): 265 mg/mL (≈ 701 mM)
solubility at 24 h ([3]; neat acetone, 298.1 K): 4.39 mg/mL (≈ 11.6 mM)
solubility at 24 h ([3]; neat acetonitrile, 298.1 K): 2.02 mg/mL (≈ 5.34 mM)
solubility at 24 h ([3]; neat cyrene, 298.1 K): 1.62 mg/mL (≈ 4.28 mM)
solubility at 24 h ([3]; neat diglyme, 298.1 K): 2.52 mg/mL (≈ 6.66 mM)
solubility at 24 h ([3]; neat dioxane, 298.1 K): 4.17 mg/mL (≈ 11 mM)
solubility at 24 h ([3]; neat ethyl lactate, 298.1 K): 1.25 mg/mL (≈ 3.3 mM)
solubility at 24 h ([3]; neat methanol, 298.1 K): 1.51 mg/mL (≈ 3.99 mM)
solubility at 24 h ([3]; neat tetraglyme, 298.1 K): 4.62 mg/mL (≈ 12.2 mM)
solubility at 24 h ([3]; neat triglyme, 298.1 K): 0.95 mg/mL (≈ 2.51 mM)
solubility at 24 h ([3]; neat γ-heptalactone, 298.1 K): 1.78 mg/mL (≈ 4.71 mM)
solubility at 24 h [3, 4]: 1.16 mg/mL (≈ 3.07 mM)
solubility at 24 h ([3]; neat 1-butanol): 0.47 mg/mL (≈ 1.24 mM)
solubility x ([3]; neat 1-butanol, 298.1 K): 1.11 (0.04) × 10^−4 mole fraction
solubility at 24 h ([3]; neat 1-propanol): 0.61 mg/mL (≈ 1.61 mM)
solubility x ([3]; neat 1-propanol, 298.1 K): 1.19 (0.05) × 10^−4 mole fraction
solubility at 24 h ([3]; neat 4FM): 7.22 mg/mL (≈ 19.1 mM)
solubility x ([3]; neat 4FM, 298.1 K): 1.88 (0.04) × 10^−3 mole fraction
solubility x ([3]; neat DMP, 298.1 K): 2.96 (0.11) × 10^−4 mole fraction
solubility x ([3]; neat acetone, 298.1 K): 8.38 (0.16) × 10^−4 mole fraction
solubility x ([3]; neat acetonitrile, 298.1 K): 2.76 (0.12) × 10^−4 mole fraction
solubility x ([3]; neat cyrene, 298.1 K): 4.37 (0.09) × 10^−4 mole fraction
solubility x ([3]; neat diglyme, 298.1 K): 9.43 (0.90) × 10^−4 mole fraction
solubility x ([3]; neat dioxane, 298.1 K): 9.21 (0.21) × 10^−4 mole fraction
solubility at 24 h ([3]; neat ethanol): 0.82 mg/mL (≈ 2.17 mM)
solubility x ([3]; neat ethanol, 298.1 K): 1.26 (0.04) × 10^−4 mole fraction
solubility x ([3]; neat ethyl lactate, 298.1 K): 3.75 (0.10) × 10^−4 mole fraction
solubility x ([3]; neat methanol, 298.1 K): 1.60 (0.05) × 10^−4 mole fraction
solubility x ([3]; neat triglyme, 298.1 K): 4.48 (0.06) × 10^−4 mole fraction
solubility x ([3]; neat γ-heptalactone, 298.1 K): 5.92 (0.08) × 10^−4 mole fraction
solubility x [3, 4]: 4.81 (0.06) × 10^−4 mole fraction
solubility at 24 h ([3]; neat ε-caprolactone): 1.6 mg/mL (≈ 4.23 mM)
solubility x ([3]; neat ε-caprolactone, 298.1 K): 4.42 (0.09) × 10^−4 mole fraction
SMILES: O=C1Nc2ccc([N+](=O)[O-])cc2C1=NNC(=O)c1ccccc1C(F)(F)F [derivative 1, 2-trifluoromethyl-N′-[5-nitro-2-oxo-1,2-dihydro-3H-indol-3-ylidene]benzohydrazide]
solubility x ([3]; neat DMF, 298.1 K): 2.66 × 10^−2 mole fraction and 2.66 (0.55) × 10^−2 mole fraction
solubility x ([3]; neat DMSO, 298.1 K): 7.70 × 10^−2 mole fraction and 7.70 (0.11) × 10^−2 mole fraction
solubility x ([3]; neat NMP, 298.1 K): 8.06 × 10^−2 mole fraction and 8.06 (0.25) × 10^−2 mole fraction
